Test results reported in article PMC5222549 (Journal of immunology (Baltimore, Md. : 1950), 2016).

T1: mCRT(WT) (Mus musculus, UniProt P14211)
T1 sequence (P14211 18-416): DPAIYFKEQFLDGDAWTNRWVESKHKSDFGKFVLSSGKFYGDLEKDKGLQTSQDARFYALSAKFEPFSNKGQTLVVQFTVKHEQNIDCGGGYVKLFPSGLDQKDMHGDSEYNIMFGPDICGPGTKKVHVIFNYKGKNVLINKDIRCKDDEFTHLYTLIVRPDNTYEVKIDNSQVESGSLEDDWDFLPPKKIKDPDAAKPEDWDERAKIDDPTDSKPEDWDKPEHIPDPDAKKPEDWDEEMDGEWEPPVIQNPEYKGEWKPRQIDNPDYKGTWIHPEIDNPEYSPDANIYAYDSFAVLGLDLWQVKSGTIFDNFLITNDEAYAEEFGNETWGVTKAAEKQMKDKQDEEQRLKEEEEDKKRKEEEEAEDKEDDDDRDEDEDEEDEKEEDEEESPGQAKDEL

T2: mCRT(ΔP) (Mus musculus, UniProt P14211, DEL204-300)
T2 sequence (P14211 with tags, fused parts or gaps DEL204-300): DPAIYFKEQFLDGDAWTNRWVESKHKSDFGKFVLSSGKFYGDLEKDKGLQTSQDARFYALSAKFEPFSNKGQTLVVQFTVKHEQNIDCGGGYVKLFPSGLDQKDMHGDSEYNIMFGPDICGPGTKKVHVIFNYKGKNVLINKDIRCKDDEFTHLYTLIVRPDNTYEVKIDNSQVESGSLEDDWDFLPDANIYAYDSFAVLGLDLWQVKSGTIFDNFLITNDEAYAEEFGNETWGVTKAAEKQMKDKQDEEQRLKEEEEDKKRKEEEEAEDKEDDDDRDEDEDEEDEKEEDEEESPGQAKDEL

T3: mCRT(1-351 ΔP) (Mus musculus, UniProt P14211, DEL204-300)
T3 sequence (P14211 with tags, fused parts or gaps DEL204-300): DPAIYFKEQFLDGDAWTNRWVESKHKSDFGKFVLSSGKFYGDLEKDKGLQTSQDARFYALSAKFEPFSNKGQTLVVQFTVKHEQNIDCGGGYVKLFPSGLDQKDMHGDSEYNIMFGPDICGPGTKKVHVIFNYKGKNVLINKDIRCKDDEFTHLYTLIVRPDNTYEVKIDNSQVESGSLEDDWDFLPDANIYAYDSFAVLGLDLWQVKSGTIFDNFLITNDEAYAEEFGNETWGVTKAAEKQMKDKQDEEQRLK

T4: mCRT(1-351) (Mus musculus, UniProt P14211)
T4 sequence (P14211 18-368): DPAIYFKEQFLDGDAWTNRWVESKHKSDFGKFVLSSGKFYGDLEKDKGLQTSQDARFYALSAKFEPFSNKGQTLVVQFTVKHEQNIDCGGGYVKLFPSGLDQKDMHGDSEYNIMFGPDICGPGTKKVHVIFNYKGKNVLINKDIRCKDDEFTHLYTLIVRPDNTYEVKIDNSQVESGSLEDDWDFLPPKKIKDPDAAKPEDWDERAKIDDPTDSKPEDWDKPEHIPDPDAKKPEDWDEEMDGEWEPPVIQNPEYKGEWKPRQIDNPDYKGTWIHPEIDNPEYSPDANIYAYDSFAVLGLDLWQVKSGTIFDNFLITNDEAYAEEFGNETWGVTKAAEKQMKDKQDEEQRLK

T5: GB1-mCRT(C) (Mus musculus, UniProt P14211)
T5 sequence (P14211 357-416): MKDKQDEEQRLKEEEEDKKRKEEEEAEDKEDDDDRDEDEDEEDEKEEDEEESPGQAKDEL

T6: ERp57 (UniProt P30101 25-505)
T6 sequence (looked up): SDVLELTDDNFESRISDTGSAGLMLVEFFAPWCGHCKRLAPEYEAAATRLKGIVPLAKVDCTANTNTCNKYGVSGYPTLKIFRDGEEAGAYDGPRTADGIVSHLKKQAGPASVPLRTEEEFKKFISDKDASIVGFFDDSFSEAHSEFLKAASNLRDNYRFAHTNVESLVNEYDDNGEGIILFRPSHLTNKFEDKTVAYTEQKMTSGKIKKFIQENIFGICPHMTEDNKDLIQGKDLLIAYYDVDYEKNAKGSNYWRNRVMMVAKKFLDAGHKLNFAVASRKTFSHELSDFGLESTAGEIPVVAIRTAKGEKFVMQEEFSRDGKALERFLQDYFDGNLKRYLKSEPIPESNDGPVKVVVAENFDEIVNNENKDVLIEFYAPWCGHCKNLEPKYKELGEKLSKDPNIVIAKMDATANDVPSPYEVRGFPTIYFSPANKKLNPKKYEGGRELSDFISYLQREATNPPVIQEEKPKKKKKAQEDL


Columns and labels:
[1] = biological target: T1, mCRT(WT); assay: isothermal titration calorimetry, lipid vesicles titrated into […] protein; format: binding
[2] = biological target: T2, mCRT(ΔP); assay: as above; format: binding
[3] = biological target: T3, mCRT(1-351 ΔP); assay: as above; format: binding
[4] = biological target: T4, mCRT(1-351); assay: as above; format: binding
[5] = biological target: GB1-mCRT(P), the P-domain of murine calreticulin (residues 187-283) fused with the B1 domain of protein G (mouse); assay: BLI
[6] = biological target: T5, GB1-mCRT(C); assay: isothermal titration calorimetry, lipid vesicles titrated into […] protein; format: binding
[7] = biological target: T6, ERp57; assay: BLI

| Kd [1] | Kd [2] | Kd [3] | Kd [4] | Kd [5] | Kd [6] | Kd [7] | Molecule |
| --- | --- | --- | --- | --- | --- | --- | --- |
| 158 ± 37.3 µM | 92.5 ± 11 µM | 42.6 ± 11.5 µM | 53.4 ± 13.8 µM | – | – | – | CCCCCCCC/C=C\CCCCCCCC(=O)O[C@H](COC(=O)CCCCCCCCCCCCCCC)COP(=O)([O-])OCC[N+](C)(C)C [POPC] |
| – | – | – | – | 0.101 µM | – | – | ERp57 (from UniProt P30101 25-505) (natural protein) |
| 12.1 ± 4.49 µM | 7.5 ± 5.69 µM | 20.2 ± 4.08 µM | 32 ± 5.54 µM | – | 28.2 ± 4.3 µM | – | CCCCCCCC/C=C\CCCCCCCC(=O)O[C@H](COC(=O)CCCCCCCCCCCCCCC)COP(=O)(O)OC[C@H](N)C(=O)O [POPS] |
| – | – | – | – | – | – | 0.282 ± 0.038 µM | wild type murine calreticulin, mCRT(WT) (natural protein, mouse, UniProt P14211 18-416, looked up) DPAIYFKEQFLDGDAWTNRWVESKHKSDFGKFVLSSGKFYGDLEKDKGLQTSQDARFYALSAKFEPFSNKGQTLVVQFTVKHEQNIDCGGGYVKLFPSGLDQKDMHGDSEYNIMFGPDICGPGTKKVHVIFNYKGKNVLINKDIRCKDDEFTHLYTLIVRPDNTYEVKIDNSQVESGSLEDDWDFLPPKKIKDPDAAKPEDWDERAKIDDPTDSKPEDWDKPEHIPDPDAKKPEDWDEEMDGEWEPPVIQNPEYKGEWKPRQIDNPDYKGTWIHPEIDNPEYSPDANIYAYDSFAVLGLDLWQVKSGTIFDNFLITNDEAYAEEFGNETWGVTKAAEKQMKDKQDEEQRLKEEEEDKKRKEEEEAEDKEDDDDRDEDEDEEDEKEEDEEESPGQAKDEL |
